From patent publication US20050009840A1 (SUGEN, INC., priority 2003, published 2005)
pIC50: −log10 of the molar value. Several values for one entry are separate records, joined by “and”; a condition that tells them apart may be missing. Equal entries are not always repeated.

Target: T1, Met kinase domain (GST fusion protein) (Homo sapiens, UniProt P08581)
T1 construct: Purified GST fusion protein containing the Met kinase domain
Assay: Met transphosphorylation assay (ELISA, poly(glu-tyr) substrate);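 note: Cell-free ELISA with plate-bound poly(Glu:Tyr 4:1) phosphorylated by GST-fused Met kinase domain plus ATP and Mn2+, phosphotyrosine detected by anti-phosphotyrosine antibody with HRP and ABTS read-out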
Type: biochemical
Settings: read-out: Met IC50

T1 sequence (P08581 1078-1345 limits assumed): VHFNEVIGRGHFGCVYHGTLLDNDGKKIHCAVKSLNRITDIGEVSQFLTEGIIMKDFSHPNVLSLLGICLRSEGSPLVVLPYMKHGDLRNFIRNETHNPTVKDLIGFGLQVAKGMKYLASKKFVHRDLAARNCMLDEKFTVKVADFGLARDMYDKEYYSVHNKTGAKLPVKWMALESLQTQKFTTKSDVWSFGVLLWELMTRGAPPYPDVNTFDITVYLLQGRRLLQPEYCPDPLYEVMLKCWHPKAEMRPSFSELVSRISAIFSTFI

Row | pIC50 | Structure (SMILES)
1 | 4.72 | Nc1ncc(-c2ccc(O)cc2)cc1OCc1ccc(F)cc1Cl [Example I-129, 4-[6-Amino-5-(2-chloro-4-fluoro-benzyloxy)-pyridin-3-yl]-phenol]
2 | 5.05 and < 4.70 | Nc1ncc(-c2ccc(O)cc2)cc1OCc1ccc(Cl)cc1Cl [Example I-130, 4-[6-Amino-5-(2,4-dichloro-benzyloxy)-pyridin-3-yl]-phenol]
3 | 4.72 | N#Cc1ccccc1COc1cc(-c2ccc(O)cc2)cnc1N [Example I-131, 2-[2-Amino-5-(4-hydroxy-phenyl)-pyridin-3-yloxymethyl]-benzonitrile]
4 | 4.86 | Nc1ncc(-c2ccc(O)cc2)cc1OCc1ccccc1Cl [Example I-133, 4-[6-Amino-5-(2-chloro-benzyloxy)-pyridin-3-yl]-phenol]
5 | 5.38 | CS(=O)(=O)Nc1ccc(-c2cnc(N)c(OCc3ccccc3C#N)c2)cc1 [Example I-135, N-{4-[6-Amino-5-(2-cyano-benzyloxy)-pyridin-3-yl]-phenyl}-methanesulfonamide]
6 | < 4.70 | CS(=O)(=O)Nc1ccc(-c2cnc(N)c(OCc3ccccc3C(N)=O)c2)cc1 [Example I-136, 2-[2-Amino-5-(4-methanesulfonylamino-phenyl)-pyridin-3-yloxymethyl]-benzamide]
7 | < 4.70 | CS(=O)(=O)Nc1ccc(-c2cnc(N)c(OCc3ccccc3C(=O)O)c2)cc1 [Example I-137, 2-[2-Amino-5-(4-methanesulfonylamino-phenyl)-pyridin-3-yloxymethyl]-benzoic acid]
8 | < 4.70 | CN1CCN(C(=O)c2ccccc2COc2cc(-c3ccc(NS(C)(=O)=O)cc3)cnc2N)CC1 [Example I-138, N-(4-{6-Amino-5-[2-(4-methyl-piperazine-1-carbonyl)-benzyloxy]-pyridin-3-yl}-phenyl)-methanesulfonamide]
9 | < 4.70 | CS(=O)(=O)Nc1ccc(-c2cnc(N)c(OCc3ccccc3C(=O)NCCO)c2)cc1 [Example I-139, 2-[2-Amino-5-(4-methanesulfonylamino-phenyl)-pyridin-3-yloxymethyl]-N-(2-hydroxy-ethyl)-benzamide]
10 | < 4.70 | CC(C)CNC(=O)c1ccccc1COc1cc(-c2ccc(NS(C)(=O)=O)cc2)cnc1N [Example I-140, 2-[2-Amino-5-(4-methanesulfonylamino-phenyl)-pyridin-3-yloxymethyl]-N-isobutyl-benzamide]
11 | 6.20 | Nc1ncc(-c2ccc(C(=O)N3CC[C@H](N)C3)cc2)cc1OCc1c(F)cccc1Cl [Example I-145, {4-[6-Amino-5-(2-chloro-6-fluoro-benzyloxy)-pyridin-3-yl]-phenyl}-[(3S)-3-amino-pyrrolidin-1-yl]-methanone]
12 | 5.71 | CN1CCN(C(=O)c2ccc(-c3cnc(N)c(OCc4c(F)cccc4Cl)c3)cc2)CC1 [Example I-146, {4-[6-Amino-5-(2-chloro-6-fluoro-benzyloxy)-pyridin-3-yl]-phenyl}-(4-methyl-piperazin-1-yl)-methanone]

Second part, the compound before the results:

Row | Structure (SMILES) | pIC50
13 | Nc1ncc(-c2ccc(C(=O)N3CCC[C@@H]3CN3CCCC3)cc2)cc1OCc1c(F)cccc1C(F)(F)F [Example I-112, {4-[6-Amino-5-(2-fluoro-2-trifluoromethyl-benzyloxy)-pyridin-3-yl]-phenyl}-[(2R)-2-pyrrolidin-1-ylmethyl-pyrrolidin-1-yl]-methanone] | 6.82
14 | Nc1ncc(-c2ccc(C(=O)N3CCC[C@@H]3CN3CCCC3)cc2)cc1OCc1cc(F)ccc1C(F)(F)F [Example I-113, {4-(6-Amino-5-(5-fluoro-2-trifluoromethyl-benzyloxy)pyridin-3-yl]-phenyl}-[(2R)-2-pyrrolidin-1-ylmethyl-pyrrolidin-1-yl]-methanone] | 5.90
15 | CC(Oc1cc(-c2ccc(C(=O)N3CCC[C@@H]3CN3CCCC3)cc2)cnc1N)c1ccccc1C(F)(F)F (stereo partly drawn) [Example I-114, (4-{6-Amino-5-[1-(2-trifluoromethyl-phenyl)-ethoxy]-pyridin-3-yl}-phenyl)-[(2R)-2-pyrrolidin-1-ylmethyl-pyrrolidin-1-yl]-methanone] | 6.48
16 | Nc1ncc(-c2ccc(C(=O)N3CCC[C@@H]3CN3CCCC3)cc2)cc1OCc1ccccc1Br [Example I-115, {4-[6-Amino-5-(2-bromo-benzyloxy)-pyridin-3-yl]-phenyl}-[(2R)-2-pyrrolidin-1-ylmethyl-pyrrolidin-1-yl]-methanone] | 5.76
17 | Nc1ncc(-c2ccc(C(=O)N3CCC[C@@H]3CN3CCCC3)cc2)cc1OCc1cccc(F)c1C(F)(F)F [Example I-116, {4-(6-Amino-5-(3-fluoro-2-trifluoromethyl-benzyloxy)-pyridin-3-yl]-phenyl}-[(2R)-2-pyrrolidin-1-ylmethyl-pyrrolidin-1-yl]-methanone] | 7.60
18 | Nc1ncc(-c2ccc(O)cc2)cc1OCc1c(F)cccc1F [Example I-118, 4-[6-Amino-5-(2,6-difluoro-benzyloxy)-pyridin-3-yl]-phenyl] | 5.42
19 | Nc1ncc(-c2cccc3[nH]ccc23)cc1OCc1c(F)cccc1F [Example I-119, 3-(2,6-Difluoro-benzyloxy)-5-(1H-indol-4-yl)-pyridin-2-ylamine] | 5.24
20 | Nc1ncc(-c2ccc(C(=O)N3CCC[C@@H]3CN3CCCC3)cc2)cc1OCc1c(F)cccc1F [Example I-122] | 5.92
21 | Nc1ncc(-c2ccc(C(=O)N3CCC[C@H]3CN3CCCC3)cc2)cc1OCc1c(F)cccc1F [Example I-123, {4-[6-Amino-5-(2,6-difluoro-benzyloxy)-pyridin-3-yl]-phenyl}-[(2S)-2-pyrrolidin-1-ylmethyl-pyrrolidin-1-yl]-methanone] | 5.87
22 | Nc1ncc(-c2ccc(OCC(=O)O)cc2)cc1OCc1c(F)cccc1F [Example I-125, {4-[6-Amino-5-(2,6-difluoro-benzyloxy)-pyridin-3-yl]-phenoxy}-acetic acid] | 4.83
23 | Nc1ncc(-c2ccc(OCC(=O)N3CCC[C@@H]3CN3CCCC3)cc2)cc1OCc1c(F)cccc1F [Example I-126, 2-{4-[6-Amino-5-(2,6-difluoro-benzyloxy)-pyridin-3-yl]-phenoxy}-1-[(2R)-2-pyrrolidin-1-ylmethyl-pyrrolidin-1-yl]-ethanone] | 5.45
24 | Nc1ncc(-c2ccc(OCC(=O)N3CCC[C@H]3CN3CCCC3)cc2)cc1OCc1c(F)cccc1F [Example I-127, 2-{4-[6-Amino-5-(2,6-difluoro-benzyloxy)-pyridin-3-yl]-phenoxy}-1-[(2S)-2-pyrrolidin-1-ylmethyl-pyrrolidin-1-yl]-ethanone] | 5.27
25 | Nc1ncc(-c2ccc(O)cc2)cc1OCc1c(F)cccc1Cl [Example I-128, 4-[6-Amino-5-(2-chloro-6-fluoro-benzyloxy)-pyridin-3-yl]-phenol] | 5.40
26 | Nc1ncc(-c2ccc(O)cc2)cc1OCc1ccccc1C(F)(F)F [Example I-132, 4-[6-Amino-5-(2-trifluoromethyl-benzyloxy)-pyridin-3-yl]-phenol] | 5.44
27 | CC(C)(C)c1ccc(COc2cc(-c3ccc(O)cc3)cnc2N)cc1 [Example I-134, 4 [6-Amino-5-(4-teert-butyl-benzyloxy)-pyridin-3-yl]-phenol] | 5.40
28 | CN(C)[C@H]1CCN(C(=O)c2ccc(-c3cnc(N)c(OCc4c(F)cccc4Cl)c3)cc2)C1 [Example I-144, {4-[6-Amino-5-(2-chloro-6-fluoro-benzyloxy)-pyridin-3-yl]-phenyl}-[(3S)-3-dimethylamino-pyrrolidin-1-yl]-methanone] | 5.77
